In patent EP2753335B1, “AN ANTHRACYCLINE FOR THE TREATMENT OF SEPSIS” (Instituto de Medicina Molecular, priority 2011, dated 2013):
Counter-ions that a name gives are not always drawn. Like-named read-outs stand apart in the source and are kept apart here. Starred links: 1 amine or outer side, 2 acyl side, 3 side chain; linkers in the order of their positions; H or OH if unused. Positions of bridges follow the written chain, without caps; N, C: chain ends. Non-standard residues stand in square brackets, D forms with d. Residues, ends and D or L forms follow the SMILES beside them. Chains are numbered I, II in the order given. Actinocin(9to1) = Cc1c2oc3c(C)ccc(C(=O)[*:1])c3nc-2c(C(=O)[*:2])c(N)c1=O; NMeV = CN[C@H](C(=O)O)C(C)C; Sar = CNCC(=O)O

What was measured:
[1] = tested on: TNF; assay: In vitro chemical screen (Spectrum collection): TNF secretion by E. coli challenged THP-1 cells, DAS-ELISA; type: cell-based, human
Method: (§1) We identified 45 leading candidates (Figure 1A and Table I) that inhibited both cytokines.
(§2) THP-1 human monocytes (American Tissue Culture Collection-ATCC TIB-202) were plated in 96 well plates at 10^6 cell/ml and incubated with each one of ∼2320 compounds included in the Spectrum collection (Microsource Discovery Systems, Gaylordsville, CT) at 10µM for 1 hour. Cells were then challenged with 4% PFA-fixed DH5α E.coli at a Multiplicity of Infection (MOI) of 20 bacterial cells per THP-1 cell for an additional 24 hours. The cell supernatants were collected and IL-1β and TNF cytokines quantified by DAS-ELISA, using Human IL-1β/IL-1F2 DuoSet® and Human TNF DuoSet® (R&D Systems ®), respectively, according to company's protocol.
(§3) We generated a working subset of The RNAi Consortium (TRC) shRNA lentiviral vector library ^33,33 that allows for the silencing of most of the genes that are either human kinases or phosphatases. This subset was composed of 1440 individually arrayed lentiviral shRNA vectors targeting ∼700 genes, after selecting the most efficient shRNAs (two on average) based on available silencing efficiency data from the Broad Institute of MIT and Harvard. THP-1 cells were plated in 96 well plates at 10^6 cell/ml and infected with shRNA-expressing lentivirus. 48 hrs later infected cells were selected with puromycin. After the 3 days of selection, plates were duplicated. One of the plates was used to measure the cell number using Alamar Blue® cell viability assay (Invitrogeia®), according to manufacturer's instructions. In the other plate, cells were stimulated with 4% PFA-fixed DH5α E.coli at a Multiplicity of Infection (MOI) of 20 bacterial cells per THP-1 cell. Twenty-four hours after stimulation, cell supernatants were collected and IL-1β and TNF cytokines quantified by DAS-ELISA. All data values from IL-1β and TNF secretion assays were normalized by dividing the amount of IL-1β and TNF in the conditioned media 24, 12, 8, 6, 4 or 2 hrs after E. coli stimulation by the number of cells in each well and then by the average concentration per cell of the plate. Results were logarithmic natural transformed. Scores were sorted in ascending order and graphed. We calculated 1.5 SDEVs above and below the mean to identify the genes that changed IL-1β and TNF secretion when silenced. The same approach was used to identify the compounds that changed IL-1β and TNF secretion. The selected genes were submitted to two or more rounds of phenotypic validation.

[2] = tested on: IL-1β; assay: In vitro chemical screen (Spectrum collection): IL-1β secretion by E. coli challenged THP-1 cells, DAS-ELISA; type: cell-based, human
Method: as §1, §2, §3

[3] = THP-1 cells, 10µM compound for 1 hour, then PFA-fixed E. coli (MOI 20) for 24 hours

C[C@H](NCCc1ccc(O)cc1)[C@H](O)c1ccc(O)cc1 (racemic) [Ritodrine hydrochloriide]
Z score TNFa [1, 3]: -2,149761571
Z score IL1b [2, 3]: -1,268303571

O=C1C=CC(=O)c2ccccc21 [1,4-naphthoquinone]
Z score TNFa [1, 3]: -2,77797604
Z score IL1b [2, 3]: -1,349015947

CC1(C)C(=O)C=C[C@]2(C)[C@H]3CC[C@@]4(C)[C@H](c5ccoc5)OC(=O)[C@H]5O[C@]54[C@]3(C)C=C[C@@H]12 [7-desacetoxy-6,7-dehydrogedunin]
Z score TNFa [1, 3]: -2,517707805
Z score IL1b [2, 3]: -1,789647817

CC(=O)Oc1c2c(c(CC=C(C)C)c3c1C(=O)C1=C[C@@H]4CC5C(C)(C)OC(C/C=C(\C)C(=O)O)(C4=O)[C@@]15O3)OC(C)(CCC=C(C)C)C=C2 (some centres unmarked) [Acetyl isogambogic acid]
Z score TNFa [1, 3]: -3,056795183
Z score IL1b [2, 3]: -1,48116787

CCCCCCc1ccc(O)cc1O.Nc1c2ccccc2nc2ccccc12 [Acrisorcin]
Z score TNFa [1, 3]: -3,10607388
Z score IL1b [2, 3]: -0,959612692

CC[C@@]1(O)C[C@H](O[C@H]2C[C@H](N(C)C)[C@H](O)[C@H](C)O2)c2c(cc3c(c2O)C(=O)c2c(O)cccc2C3=O)[C@H]1C(=O)OC [Aklavine hydrochloride]
Z score TNFa [1, 3]: -3,511681732
Z score IL1b [2, 3]: -1,408917561

CCC(=O)OCC(=O)[C@@]1(OC(=O)CC)[C@H](C)C[C@H]2[C@H]3[C@H]([C@@H](O)C[C@@]21C)[C@@]1(C)C=CC(=O)C=C1C[C@H]3Cl [Alclometazone dipropionate]
Z score TNFa [1, 3]: -1,999200408
Z score IL1b [2, 3]: -0,922964076

CCCCC(CC)CNC(=N)NC(=N)NCCCCCCNC(=N)NC(=N)NCC(CC)CCCC (centres unmarked) [Alexidine hydrochloride]
Z score TNFa [1, 3]: -2,648173863

CC(=O)O[C@@H]1C[C@@]2(C)[C@H](c3ccoc3)C[C@H]3O[C@]32[C@]2(C)C(=O)C(O)=C3C(C)(C)C(=O)C=C[C@]3(C)[C@@H]12 [Anthothecol]
Z score TNFa [1, 3]: -2,834385142
Z score IL1b [2, 3]: -1,868706598

S=C=NCc1ccccc1 [Benzyl isothiocyanate]
Z score TNFa [1, 3]: -2,908582737
Z score IL1b [2, 3]: -1,034306584

CC(=O)OCC(=O)[C@@]1(O)[C@@H](C)C[C@H]2[C@@H]3CCC4=CC(=O)C=C[C@]4(C)[C@@]3(F)[C@@H](O)C[C@@]21C [Betamethasone acetate]
Z score TNFa [1, 3]: -2,560814606
Z score IL1b [2, 3]: -0,950513609

CC1(C)C(=O)C=C[C@@]2(C)C1=C(O)C(=O)[C@]1(C)[C@@H]2CC[C@@]2(C)[C@H](c3ccoc3)C[C@H]3O[C@]321 [Cedrelone]
Z score TNFa [1, 3]: -2,817231786
Z score IL1b [2, 3]: -1,852572153

CC1=C(O)C(=O)C=C2C1=CC=C1[C@@]2(C)CC[C@@]2(C)[C@@H]3C[C@](C)(C(=O)O)CC[C@]3(C)CC[C@]12C [Celastrol]
Z score TNFa [1, 3]: -2,941287145
Z score IL1b [2, 3]: -1,499560887

C=C1C(=O)O[C@H]2C[C@@H]1C(OC(C)=O)C/C(C)=C/CC/C(C)=C/CC[C@@]2(C)O (some centres unmarked) [Crassin acetate]
Z score TNFa [1, 3]: -4,448741528
Z score IL1b [2, 3]: -2,126298968

Cc1c2oc3c(C)ccc(C(=O)N[C@@H]4C(=O)N[C@H](C(C)C)C(=O)N5CCC[C@H]5C(=O)N(C)CC(=O)N(C)[C@@H](C(C)C)C(=O)O[C@@H]4C)c3nc-2c(C(=O)N[C@@H]2C(=O)N[C@H](C(C)C)C(=O)N3CCC[C@H]3C(=O)N(C)CC(=O)N(C)[C@@H](C(C)C)C(=O)O[C@@H]2C)c(N)c1=O [Dactinomycin] (I: T[dV]P[Sar][NMeV] / II: T[dV]P[Sar][NMeV]; ester I:1-I:C, II:1-II:C; linker I:N-II:N via Actinocin(9to1))
Z score TNFa [1, 3]: -4,13760156
Z score IL1b [2, 3]: -1,187827575

CC1(C)O[C@@H]2C[C@H]3[C@@H]4CCC5=CC(=O)C=C[C@]5(C)[C@H]4[C@@H](O)C[C@]3(C)[C@]2(C(=O)CO)O1 [Desonide]
Z score TNFa [1, 3]: -2,297715909
Z score IL1b [2, 3]: -0,945977097

C[C@@H]1C[C@H]2[C@@H]3CCC4=CC(=O)C=C[C@]4(C)[C@@]3(F)[C@@H](O)C[C@]2(C)[C@H]1C(=O)CO [Desoxymetasone]
Z score TNFa [1, 3]: -2,417754689
Z score IL1b [2, 3]: -0,995122645

Cc1c(O)c(O)cc2c1CC=C1[C@@]2(C)CC[C@@]2(C)[C@@H]3C[C@](C)(C(=O)O)CC[C@]3(C)CC[C@]12C [Dihydrocelastrol]
Z score TNFa [1, 3]: -3,387513735
Z score IL1b [2, 3]: -1,102010407

CC(C)=CCCC1(C)C=Cc2c(O)c3c(c(CC=C(C)C)c2O1)OC12C(=CC4CC1C(C)(C)OC2(C/C=C(/C)C(=O)O)C4O)C3=O (centres unmarked) [Dihydrogambogic acid]
Z score TNFa [1, 3]: -2,488781431
Z score IL1b [2, 3]: -1,48996453

CS(=O)(=O)CCCCN=C=S [Erysolin]
Z score TNFa [1, 3]: -4,442389411
Z score IL1b [2, 3]: -1,162701697

CCOc1ccc2nc3cc(N)ccc3c(N)c2c1 [Ethacridine lactate]
Z score TNFa [1, 3]: -2,218841761
Z score IL1b [2, 3]: -1,389229184

CC(C)=CCC[C@]1(C)C=Cc2c(O)c3c(c(CC=C(C)C)c2O1)O[C@]12C(=C[C@@H]4CC1C(C)(C)O[C@@]2(C/C=C(/C)C(N)=O)C4=O)C3=O [Gambogic acid amide]
Z score TNFa [1, 3]: -3,013926221
Z score IL1b [2, 3]: -1,517154207

CC(C)=CCC[C@]1(C)C=Cc2c(O)c3c(c(CC=C(C)C)c2O1)O[C@]12C(=C[C@@H]4C[C@H]1C(C)(C)O[C@@]2(C/C=C(/C)C(=O)O)C4=O)C3=O [Gambogic acid]
Z score TNFa [1, 3]: -3,862359373
Z score IL1b [2, 3]: -1,529656531

CN(C)c1ccc(C(=C2C=CC(=[N+](C)C)C=C2)c2ccc(N(C)C)cc2)cc1 [Gentian violet]
Z score TNFa [1, 3]: -2,696385799
Z score IL1b [2, 3]: -1,835724332

C=C1C(=O)O[C@@H]2C[C@@]3(C)CCC[C@H](C)C3=C[C@H]12 [Helenine]
Z score TNFa [1, 3]: -2,683894042
Z score IL1b [2, 3]: -0,943744357

CCCCC(=O)O[C@]1(C(=O)CO)CC[C@H]2[C@@H]3CCC4=CC(=O)CC[C@]4(C)[C@H]3[C@@H](O)C[C@@]21C [Hydrocortisone valerate]
Z score TNFa [1, 3]: -2,794271243
Z score IL1b [2, 3]: -2,722889618

COc1cc2oc3cc(OC)c(OC)c(CC=C(C)C)c3c(=O)c2c(OC)c1CC=C(C)C [Mangostin trimethyl ether]
Z score TNFa [1, 3]: -3,162805301
Z score IL1b [2, 3]: -1,634164354

O=C1c2c(O)ccc(O)c2C(=O)c2c(NCCNCCO)ccc(NCCNCCO)c21 [Mitoxanthrone hydrochloride]
Z score TNFa [1, 3]: -2,562729474
Z score IL1b [2, 3]: -1,158920135

COC1=CC(=O)C(O)=C/C1=C\C=C\c1ccccc1 [Obtusaquinone]
Z score TNFa [1, 3]: -3,829374842
Z score IL1b [2, 3]: -1,532189516

O=C1C=C2C(=CCOC2O)O1 (centres unmarked) [Patulin]
Z score TNFa [1]: -2,874616362
Z score IL1b [2]: -0,902703858

CC(C)=CC1C(C(=O)OCc2cccc(Oc3ccccc3)c2)C1(C)C (centres unmarked) [Phenothrin]
Z score TNFa [1, 3]: -2,810792588
Z score IL1b [2, 3]: -0,983918754

C[C@]12C=CC(=O)C=C1CC[C@@H]1[C@@H]2[C@@H](O)C[C@@]2(C)[C@H]1CC[C@]2(O)C(=O)COC(=O)CCC(=O)O [Prednisolone hemisuccinate]
Z score TNFa [1, 3]: -2,72427413
Z score IL1b [2, 3]: -2,095888301

COC(=O)[C@]1(C)CC[C@]2(C)CC[C@]3(C)C4=CC=C5C(=CC(=O)C(O)=C5C)[C@]4(C)CC[C@@]3(C)[C@@H]2C1 [Pristimerin]
Z score TNFa [1, 3]: -3,474946679
Z score IL1b [2, 3]: -0,952562058
